Data from patent US20050107394A1, “Novel use of selective pde5 inhibitors” (priority 2001, published 2005).
“And” between values parts separate entries of the source, which are not always exact repeats. Equal entries are not always repeated. “Also recorded” adds a separate entry of the source.

Columns and labels:
[1] = system: bleomycin-induced pulmonary fibrosis in rabbits; assay: Shunting by MIGET in bleomycin-induced pulmonary fibrosis; type: in vivo, rabbit; conditions: for shunting (MIGET), level reached: PGI 6 ng/kg/min systemic, NO 20 ppm inhaled, sildenafil 1 mg/kg oral; for effect on shunting: NO inhaled, sildenafil oral
Protocol: FIG. 1: Result of determination of shunting with the aid of the model of bleomycin-induced pulmonary fibrosis in rabbits. The measurements by the inert gas exchange method (MIGET) [Wagner et al., J Appl Physiol. 1974;36:588-99] reveal that the shunting was increased by 15% in this model, compared with the untreated control. Systemically administered PGI [6 ng/kg body weight/min] (PGI, prostacyclin) increased the shunting to about 30%. […] Shunting was reduced to 6% by oral administration of the PDE5 inhibitor sidenafil [1 mg/kg body weight].
Healthy rabbits of both sexes were pretreated orally with a gyrase inhibitor (Baytril®) for one week. Ten animals pretreated in this way were not treated with bleomyin and served as control, and, on the day of exposure, the others were anaesthetized with a Ketanest®/Rompun® mixture, intubated intratracheally and ventilated mechanically. An ultrasonic nebulizer (MMAD 2.5 μm) was used to administer by inhalation exactly 1.8 U/kg of bodyweight of bleomycin under volume-controlled ventilation. After 4, 8, 16, 24, 32 and 64 days (in each case n≧5) post exposure, the animals were again anaesthetized, provided with an arterial access (right carotid artery) and underwent bodyweight-adapted ventilation via a tracheostomy in a volume-controlled method. The arterial pO2 and pCO2, and the static compliance of the lung were measured (by recording the intrathoracic pressure and with slow inflation/deflation manoeuvres). Subsequently, the lungs of these animals were dissected and perfused with a Krebs Hensefeit buffer. Under these conditions, the capillary filtraton coefficient (cfc) was then found from the weight gain of the organ after increasing the pulmonary venous pressure by 7.5 mmHg, and the peak ventilation pressure was found. After completion of these measurements, the left main bronchus was ligated in the end-inspiratory position and a bronchoalveolar lavage (BAL) was performed on the right lung. Subsequently, the large vessels and airways of the right lung were dissected off and the organ was homogenized. The left lung was perfusion-fixed with 4% formalin solution while maintaining a pressure gradient of 25 cm H2O and was then stored in 4% formalin until embedded. Firstly, the cells were removed from the BAL, counted and differentiated via a Papenheim stain. The cell-free BAL supernatant was then aliquoted and submitted to further analysis of the surfactant and coagulation properties and a determination of the matrix metallo proteinases (MMPs) and their inhibitors (TIMPs) and of soluble collagen. Bronchoalveolar deposition of 1.8 U/kg of bodyweight of bleomycin led initially to development of an ARDS-like event, with a massive restriction of gas exchange (paO2/FiO2 of >500 mmHg in the controls reduced to ˜110 mmHg on day 4), ground-glass opacities over all sections of the lung in the HRCT and an increase of about 5-fold in the capillary filtration coefficient (cfc). In the later phase of bleomycin-induced lung damage there was then development of pronounced fibrosis which could be confirmed on the basis of the increase in soluble collagen in the BAL and the hydroxyproline in the tissue, on the basis of the histological specimens and of the HRCT findings. […] Consistent with this, a pronounced increase in the extracellular matrix and an alveolar and also interstitial ingress of fibroblasts was observable in the histological sections. […]

[2] = system: patients with ILD (interstitial lung disease) displaying secondary PHT; assay: Shunting by MIGET in patients with ILD; type: in vivo, human; conditions: 7 patients with ILD; for shunting / shunt perfusion (MIGET), level reached: baseline 7.2%, PGI i.v., NO 20 ppm inhaled, sildenafil 50 mg oral
Protocol: FIG. 5: Result of determination of the shunting on 7 patients with ILD (interstitial lung disease) displaying secondary PHT. The measurement took place by the inert gas exchange method (MIGET) [Wagner et al. J Appl Physiol. 1974;36:588-99]. The shunting was reduced to 5% and 4.8%, respectively, by NO (inhaled) [20 ppm] and sildenafil (oral) [50 mg]. The shunting was increased to 18% after administration of PGI (prostacyclin, intravenous) […]].
(§1) 7 patients with ILD underwent a Swan-Ganz catheter investigation with measurement of the ventilation/perfusion (V/Q) distribution (using the multiple inert gas elimination technique (MIGET)). After determination of the baseline parameters (haemodynamics and gas exchange), all the patients initially inhaled 20 ppm NO, followed by a second baseline period (10-15 min), and then PGI was infused (6 ng/kg bodyweight/min), again followed by a second baseline period (10-15 min) and then an oral dose of 50 mg of sildenafil was given (120-150 min follow-up). 5 of the 7 patients were controlled by continuous nasal oxygen therapy in order to reach an arterial oxygenation of >88%. The following parameters were measured under baseline conditions: mean pulmonary arterial pressure (mPAP) 39.6+/−2.8 mmHg and pulmonary vascular resistance index (PVRI) 1255+/−215 dyn*s*cm−5*m^2.

[3] = system: patients with ILD displaying secondary PHT; assay: Arterial oxygen partial pressure (delta PaO2) in patients with ILD; type: in vivo, human; conditions: 7 patients with ILD; for arterial oxygen partial pressure (delta PaO2) / O2 saturation, increase: NO 20 ppm inhaled, sildenafil 50 mg oral
Description: FIG. 6: Result of determination of the arterial oxygen partial pressure (PaO2) on 7 patients with ILD displaying secondary PHT (pulmonary hypertension) measured as delta PaO2.
as §1

[4] = system: patients with COPD (chronic obstructive pulmonary disease); assay: 6-minutes walking test in COPD patients; type: in vivo, human; conditions: 6 months
Description: FIG. 7: Result of the 6-minutes walking test measured on 4 patients with COPD (chronic obstructive pulmonary disease). […]

[5] = system: patients with COPD (chronic obstructive pulmonary disease); assay: Arterial oxygen saturation at rest in COPD patients; type: in vivo, human; parameters: dose or concentration left out as unconfirmed; conditions: 4 COPD patients; sildenafil oral, 6 months
Protocol: FIG. 8: Result of determination of the arterial oxygen saturation on 4 patients with COPD (chronic obstructive pulmonary disease) treated with sildenafil (75 mg/day) (oral) measured at rest over a period of 6 months. The arterial oxygen saturation in the patient improved respectively by 2%, 4%, 5% and 6%, compared with the saturation at the start of the series of measurements (time: 0 months). […]

| SMILES | shunting (MIGET), level reached [1] | shunting / shunt perfusion (MIGET), level reached [2] | arterial oxygen partial pressure / oxygen saturation, decrease ([3]; PGI intravenous 6 ng/kg/min) | effect on shunting [1] | effect on shunting / ventilation/perfusion distribution [2] | arterial oxygen partial pressure (delta PaO2) / O2 saturation, increase [3] | 6-minutes walking distance, improvement compared with the starting point (0 months), one value per patient ([4]; 4 COPD patients, 75 mg sildenafil oral each day) | functional capacity (6-min walking, arterial O2 saturation), words ([4]; 4 patients, 50 mg/d sildenafil oral) | arterial oxygen saturation at rest, improvement compared with the start (0 months), one value per patient [5] |
| --- | --- | --- | --- | --- | --- | --- | --- | --- | --- |
| CCCCC[C@H](O)/C=C/[C@@H]1[C@H]2C/C(=C/CCCC(=O)O)O[C@H]2C[C@H]1O [PGI, prostacyclin] | about 30% | 18% and ~20% | 12.5% and 12% | – | – | – | – | – | – |
| [N]=O [NO, nitric oxide] | 9% | 5% | – | reduced the shunting | virtually unchanged; also recorded: no effect | 5% and 4.8% | – | – | – |
| CCCc1nn(C)c2c(=O)[nH]c(-c3cc(S(=O)(=O)N4CCN(C)CC4)ccc3OCC)nc12 [sildenafil, 5-[2-ethoxy-5-(4-methyl-1-piperazinyl-sulphonyl)phenyl]-1-methyl-3-n-propyl-1,6-dihydro-7H-pyrazolo[4,3-d]pyrimidin-7-one] | 6% | 4.8% | – | reduced the shunting even more than NO | virtually unchanged; also recorded: no effect | 15% and 13% | 41% and 45% and 74% and 150% | marked improvement | 2% and 4% and 5% and 6% |
